Where two headings read alike, the source gives them in different places.
Columns and labels:
Mtb [1] = test: Transmission electron microscopy of Mtb cell envelope thickness; type: cell-based, Mycobacterium tuberculosis; conditions: TEM, 1 μg/ml INH and/or 5 μM gallein for 14 days
Mtb [2] = test: microbe, parasite or virus in culture; type: cell-based, Mycobacterium tuberculosis
IP6K1 = IP6K1 (Homo sapiens, UniProt Q92551); conditions: Liao 2021; read-out: IC50 as to IP6K1; cited from earlier work
Sequence of IP6K1 (Q92551 whole entry): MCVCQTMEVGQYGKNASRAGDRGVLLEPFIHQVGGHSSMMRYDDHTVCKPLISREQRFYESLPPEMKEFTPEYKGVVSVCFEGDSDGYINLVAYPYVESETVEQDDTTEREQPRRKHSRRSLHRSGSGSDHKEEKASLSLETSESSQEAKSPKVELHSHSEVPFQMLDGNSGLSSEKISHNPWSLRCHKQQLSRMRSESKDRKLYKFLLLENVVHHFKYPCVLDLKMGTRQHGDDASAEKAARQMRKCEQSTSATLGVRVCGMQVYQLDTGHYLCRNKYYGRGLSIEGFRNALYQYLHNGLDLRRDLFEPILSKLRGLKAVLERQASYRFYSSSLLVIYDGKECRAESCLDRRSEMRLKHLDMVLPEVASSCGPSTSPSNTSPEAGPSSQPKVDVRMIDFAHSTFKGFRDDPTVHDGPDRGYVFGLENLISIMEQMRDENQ

Mtb [3] = test: microbe, parasite or virus in culture; conditions: Mycobacterium tuberculosis, Macrophage, in Homo sapiens, 48 h, read-out: reduction of the viability of Mtb
L. monocytogenes = type: cell-based, Listeria monocytogenes
Mtb [4] = system: Mtb
L. pneumophila = type: cell-based, Legionella pneumophila
PPK1 = PPK1 (Pseudomonas aeruginosa, UniProt P0DP44); conditions: in Pseudomonas aeruginosa, Neville et al., 2021; cited from earlier work
Sequence of PPK1 (P0DP44 whole entry): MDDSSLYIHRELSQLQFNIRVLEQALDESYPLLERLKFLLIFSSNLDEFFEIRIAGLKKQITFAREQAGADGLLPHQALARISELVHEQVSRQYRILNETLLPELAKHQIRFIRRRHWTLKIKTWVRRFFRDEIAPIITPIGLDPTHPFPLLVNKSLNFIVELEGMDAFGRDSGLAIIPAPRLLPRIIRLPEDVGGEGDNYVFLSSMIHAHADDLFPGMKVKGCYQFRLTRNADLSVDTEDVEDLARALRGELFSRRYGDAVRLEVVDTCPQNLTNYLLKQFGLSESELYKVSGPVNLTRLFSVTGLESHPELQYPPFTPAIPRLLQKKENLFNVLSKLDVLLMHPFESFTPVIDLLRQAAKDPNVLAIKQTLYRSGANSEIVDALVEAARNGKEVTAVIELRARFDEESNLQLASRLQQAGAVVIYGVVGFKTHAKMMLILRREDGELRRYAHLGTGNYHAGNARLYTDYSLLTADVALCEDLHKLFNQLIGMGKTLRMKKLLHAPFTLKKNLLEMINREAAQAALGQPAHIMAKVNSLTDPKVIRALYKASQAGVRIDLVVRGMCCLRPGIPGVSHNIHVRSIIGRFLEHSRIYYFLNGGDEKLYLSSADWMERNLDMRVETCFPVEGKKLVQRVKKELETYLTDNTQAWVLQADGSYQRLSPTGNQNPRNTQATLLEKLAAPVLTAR

P. aeruginosa = conditions: in Caenorhabditis elegans, Neville et al., 2021; cited from earlier work
PPK2 = conditions: in Pseudomonas aeruginosa, Neville et al., 2021; cited from earlier work

Compound | Mtb cell envelope thickness (Mtb [1]) | viability of ingested L. monocytogenes compared to control (L. monocytogenes) | number of ingested Mtb compared to control (Mtb [4]) | number of viable Mtb compared to control (Mtb [4]) | viability of ingested L. pneumophila compared to control (L. pneumophila) | metabolic activity of macrophages infected with Mtb (human macrophages) | also measured
NNC(=O)c1ccncc1 [INH, Isonicotinic acid hydrazide] | increased |  |  |  |  |  | Mtb growth (Mtb [2]): partial but not complete reduction
Cn1sc(=O)n(Cc2ccccc2)c1=O [LI-1753] |  |  |  |  |  |  | IC50 (IP6K1): 2150 nM
O=[N+]([O-])c1ccc(CNc2nc(NCc3cccc(C(F)(F)F)c3)nc3[nH]cnc23)cc1 [TNP, N6-[(4-nitrophenyl)methyl]-N2-[[3-(trifluoromethyl)phenyl]methyl]-9H-Purine-2,6-diamine] |  | reduced the viability | increased | reduced the number of viable Mtb | reduced the viability | did not significantly change | inhibition at 1 µM (Mtb [3]): ~50%; metabolic activity of macrophages (human macrophages): reduced the metabolic activity
O=C1OC2(c3ccccc31)c1ccc(O)c(O)c1Oc1c2ccc(O)c1O [gallein, 3′,4′,5′,6′-Tetrahydroxyspiro[isobenzofuran-1(3H),9′-(9H)xanthen]-3-one] | did not significantly affect | reduced the viability | increased | reduced the number of viable Mtb | reduced the viability | did not significantly change | PPK1 enzyme activity (PPK1): inhibits; ingested Mtb viability compared to control (Mtb [4]): decreased ingested Mtb viability; viability of ingested Mtb compared to control (Mtb [4]): reduced the viability; virulence of P. aeruginosa (P. aeruginosa): attenuates the virulence; metabolic activity of macrophages (human macrophages; human): None of the concentrations of MRS2279 and gallein significantly altered; Mtb growth compared to control (Mtb [2]): slightly slowed growth; inhibition at 50 µM (Mtb [2]; Mycobacterium tuberculosis, 336 h, read-out: inhibition of Mtb growth): ~80%; PPK2 enzyme activity (PPK2): inhibits

From patent US20260224597A1, “METHODS FOR ACTIVATING IMMUNE CELLS TO KILL BACTERIA” (The Texas A&M University System, priority 2023, published 2026)
